US20250235462A1, “NOVEL CAPSID ASSEMBLY INHIBITORS” (AM SCIENCES INC, priority 2021, published 2025)
Like-named read-outs stand apart in the source and are kept apart here.

How the values were obtained:
[1] = tested on: intracellular HBV DNA; assay: Real-time PCR for intracellular HBV DNA in HepAD38 cells; assay type: cell-based, hepatitis B virus (HBV); conditions: Hepatitis B virus, HePAD38, 65 h, treated for 65 hours, intracellular HBV DNA by real-time PCR
Procedure: HepAD38 cells were cultured in DMEM medium (Welgene) supplemented with 200 unit/mL penicillin, 200 μg/mL streptomycin, and 10% FBS. During maintenance and passage, the cells were cultured together with 0.4 μg/mL tetracycline. Two days before the treatment with compounds for inducing HBV replication was started, the medium was replaced with a tetracycline-free complete growth medium. […]
HepAD38 cells were treated with a compound for 65 hours and then recovered, and intracellular HBV DNA was extracted therefrom according to the protocol in the DNeasy Blood & Tissue Kit (Qiagen). The primers and probes used to quantify HBV DNA were 5′-[…]-3′, 5′-[…]-3′, and 5′-/56-FAM/TGT CCT GGT/ZEN/[…]/3IABKFQ/-3′. The HBV DNA was amplified by real-time PCR assay using LightCycler 480 (Roche) (J. Virol., 2018, 92(16):e00339-18). All of the processes were confirmed in duplicate.

[2] = Cell viability assay (EZ-Cytox) in HepAD38 cells; assay type: cell-based; conditions: human, 65 hours of treatment; for CC50 at 65 h: read-out: Cytotoxicity CC50; for viability at 65 h, 100 µM: read-out: Cytotoxicity % Livability (@100 μM)
Procedure: HepAD38 cells were cultured for 2 days in Dulbecco's Modified Eagle's medium (Welgene, LM001-05) supplemented with 10% FBS without tetracycline. The cells were seeded in 48-well culture plates (1×10^5 cells/well) and treated with each compound at five concentrations (0 μM (0.8% DMSO as a control), 33 μM, 50 μM, 66 μM, and 100 μM). After 65 hours of treatment, viability was measured using EZ-Cytox cell viability assay kit (Daeil Lab Service) according to the manufacturer's instructions. The absorbance was measured at 450 nm using a spectrophotometer (Spark, Tecan). Here, NVR-3-778 (denoted as NVR) was used as a positive control.

[3] = target: Protein (capsid assembly) (Hepatitis B virus genotype D subtype ayw, UniProt P03146); assay: Protein inhibition (capsid assembly inhibition), Table 1; assay type: biochemical; conditions: for EC50: NVR value of the same run in brackets, read-out: Protein EC50
Chain of Protein (capsid assembly) (P03146 whole entry): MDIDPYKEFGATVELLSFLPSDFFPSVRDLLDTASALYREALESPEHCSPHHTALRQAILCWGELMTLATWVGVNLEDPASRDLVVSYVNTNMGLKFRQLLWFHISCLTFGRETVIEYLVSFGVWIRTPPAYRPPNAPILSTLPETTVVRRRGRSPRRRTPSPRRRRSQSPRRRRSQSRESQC

[4] = @30 μM, read-out: Protein % inhibition rate (@30 μM)

Row | SMILES | IC50 [1] | CC50 at 65 h [2] | viability at 65 h, 100 µM [2] | EC50 [3] | inhibition at 30 µM ([3]; read-out: Protein % inhibition rate (@30 μM), @30 μM) | inhibition at 30 µM [3, 4]
1 | O=C(Nc1ccc(F)c(Cl)c1)N(Cc1nnc2n1CCOCC2)c1ccnc(O)c1 [Example 46, 3-(3-chloro-4-fluorophenyl)-1-(2-hydroxypyridin-4-yl)-1-((5,6,8,9-tetrahydro-[1,2,4]triazolo[4,3-d][1,4]oxazepin-3-yl)methyl)urea] | > 1.1 µM | > 100 µM | 90.5% |  |  | 
2 | COCCn1c(CN(C(=O)Nc2ccc(F)c(Cl)c2)c2ccc(OC)nc2)nnc1C(F)F [Example 51, 3-(3-Chloro-4-fluorophenyl)-1-((5-(difluoromethyl)-4-(2-methoxyethyl)-4H-1,2,4-triazol-3-yl)methyl)-1-(6-methoxypyridin-3-yl)urea] | > 1.1 µM | > 100 µM | 84.2% |  |  | 
3 | COc1cc(N(Cc2nnc3n2CCOCC3)C(=O)Nc2ccc(F)c(Cl)c2)ccn1 [Example 47, 3-(3-Chloro-4-fluorophenyl)-1-(2-methoxypyridin-4-yl)-1-((5,6,8,9-tetrahydro-[1,2,4]triazolo[4,3-d][1,4]oxazepin-3-yl)methyl)urea] | 0.092 µM | > 100 µM | 81.2% |  |  | 
4 | COc1ccc(N(Cc2nnc(C(F)(F)F)n2CCO)C(=O)Nc2ccc(F)c(Cl)c2)cn1 [Example 50, 3-(3-Chloro-4-fluorophenyl)-1-((4-(2-hydroxyethyl)-5-(trifluoromethyl)-4H-1,2,4-triazol-3-yl)methyl)-1-(6-methoxypyridin-3-yl)urea] | > 1.1 µM | > 100 µM | 101% |  |  | 
5 | COCCn1c(CN(C(=O)Nc2ccc(F)c(Cl)c2)c2ccc(OC)nc2)nnc1C(F)(F)F [Example 52, 3-(3-Chloro-4-fluorophenyl)-1-((4-(2-methoxyethyl)-5-(trifluoromethyl)-4H-1,2,4-triazol-3-yl)methyl)-1-(6-methoxypyridin-3-yl)urea] | > 1.1 µM | > 100 µM | 55.4% |  |  | 
6 | O=C(Nc1ccc(F)c(Cl)c1)N(Cc1nnc2n1CCCCC2)c1cccc(C(F)(F)F)c1 [Example 21, 3-(3-Chloro-4-fluorophenyl)-1-((6,7,8,9-tetrahydro-5H-[1,2,4]triazolo[4,3-a]azepin-3-yl)methyl)-1-(3-(trifluoromethyl)phenyl)urea] | > 3.3 µM |  |  | 11 µM | 4% | 
7 | N#Cc1ccc(N(Cc2nnc3n2CCCCC3)C(=O)Nc2ccc(F)c(Cl)c2)cc1 [Example 28, 3-(3-Chloro-4-fluorophenyl)-1-(4-cyanophenyl)-1-((6,7,8,9-tetrahydro-5H-[1,2,4]triazolo[4,3-a]azepin-3-yl)methyl)urea] | 0.604 µM |  |  | 4 µM |  | 36%
8 | O=C(NC1CCCC1)N(Cc1nnc2n1CCCCC2)c1ccc2c(c1)OCO2 [Example 11, 1-(Benzo[d][1,3]dioxol-5-yl)-3-cyclopentyl-1-((6,7,8,9-tetrahydro-5H-[1,2,4]triazolo[4,3-a]azepin-3-yl)methyl)urea] | > 3.3 µM |  |  |  |  | 4%
9 | COc1ccc(N(Cc2nnc(C(F)F)n2C)C(=O)Nc2ccc(F)c(Cl)c2)cn1 [Example 48, 3-(3-Chloro-4-fluorophenyl)-1-((5-(difluoromethyl)-4-methyl-4H-1,2,4-triazol-3-yl)methyl)-1-(6-methoxypyridin-3-yl)urea] | > 1.1 µM | > 100 µM | 102% |  |  | 
10 | COc1ccc(N(Cc2nnc(C)n2C2CCCC2)C(=O)Nc2ccc(F)c(Cl)c2)cc1 [Example 32, 3-(3-Chloro-4-fluorophenyl)-1-((4-cyclopentyl-5-methyl-4H-1,2,4-triazol-3-yl)methyl)-1-(4-methoxyphenyl)urea] | 0.32 µM |  |  | 4.9 µM |  | 23%
11 | O=C(Nc1ccc(F)c(Cl)c1)N(Cc1nnc2n1CCCCC2)c1ccc2[nH]ccc2c1 [Example 18, 3-(3-Chloro-4-fluorophenyl)-1-(1H-indol-5-yl)-1-((6,7,8,9-tetrahydro-5H-[1,2,4]triazolo[4,3-a]azepin-3-yl)methyl)urea] | > 3.3 µM |  |  | 4.8 µM |  | 96.8%
12 | CN(C)c1ccc(N(Cc2nnc3n2CCCCC3)C(=O)Nc2ccc(F)c(Cl)c2)cc1 [Example 34, 3-(3-Chloro-4-fluorophenyl)-1-(4-(dimethylamino)phenyl)-1-((6,7,8,9-tetrahydro-5H-[1,2,4]triazolo[4,3-a]azepin-3-yl)methyl)urea] | > 3.3 µM |  |  |  |  | -7%
13 | COc1ccc(N(Cc2nnc(C3CCCC3)n2C)C(=O)Nc2ccc(F)c(Cl)c2)cc1 [Example 31, 3-(3-Chloro-4-fluorophenyl)-1-((5-cyclopentyl-4-methyl-4H-1,2,4-triazol-3-yl)methyl)-1-(4-methoxyphenyl)urea] | 3.48 µM |  |  | 16 µM |  | -4%
14 | O=C(Nc1ccc(F)c(Cl)c1)N(Cc1nnc2n1CCCCC2)C1CCCC1 [Example 6, 3-(3-Chloro-4-fluorophenyl)-1-cyclopentyl-1-((6,7,8,9-tetrahydro-5H-[1,2,4]triazolo[4,3-a]azepin-3-yl)methyl)urea] | 1.57 µM |  |  | 1.2 µM |  | 77%
15 | COc1ccc(N(Cc2nnc(C)n2-c2ccccc2)C(=O)Nc2ccc(F)c(Cl)c2)cc1 [Example 25, 3-(3-Chloro-4-fluorophenyl)-1-(4-methoxyphenyl)-1-((5-methyl-4-phenyl-4H-1,2,4-triazol-3-yl)methyl)urea] | > 3.3 µM |  |  |  |  | -2%
16 | COc1ccc(N(Cc2nnc(C)n2C2CC2)C(=O)Nc2ccc(F)c(Cl)c2)cc1 [Example 37, 3-(3-Chloro-4-fluorophenyl)-1-((4-cyclopropyl-5-methyl-4H-1,2,4-triazol-3-yl)methyl)-1-(4-methoxyphenyl)urea] | > 3.3 µM |  |  |  |  | 84.1%
17 | COc1ccc(N(Cc2nnc(C(C)C)n2C)C(=O)Nc2ccc(F)c(Cl)c2)cc1 [Example 29, 3-(3-Chloro-4-fluorophenyl)-1-((5-isopropyl-4-methyl-4H-1,2,4-triazol-3-yl)methyl)-1-(4-methoxyphenyl)urea] | > 3.3 µM |  |  |  |  | 1%
18 | Cc1cccc(NC(=O)N(Cc2nnc3n2CCCCC3)c2ccc3c(c2)OCO3)n1 [Example 20, 1-(Benzo[d][1,3]dioxol-5-yl)-3-(6-methylpyridin-2-yl)-1-((6,7,8,9-tetrahydro-5H-[1,2,4]triazolo[4,3-a]azepin-3-yl)methyl)urea] | 0.89 µM |  |  |  |  | 3%
19 | N#Cc1cccc(N(Cc2nnc3n2CCCCC3)C(=O)Nc2ccc(F)c(Cl)c2)c1 [Example 19, 3-(3-Chloro-4-fluorophenyl)-1-(3-cyanophenyl)-1-((6,7,8,9-tetrahydro-5H-[1,2,4]triazolo[4,3-a]azepin-3-yl)methyl)urea] | > 3.3 µM |  |  |  |  | 94%
20 | O=C(Nc1ccc(F)c(Cl)c1)N(Cc1nnc2n1CCCCC2)c1ncco1 [Example 39, 3-(3-Chloro-4-fluorophenyl)-1-(oxazol-2-yl)-1-((6,7,8,9-tetrahydro-5H-[1,2,4]triazolo[4,3-a]azepin-3-yl)methyl)urea] | > 3.3 µM |  |  | 5.7 µM |  | 100%
